Data set [1] deals with methionine-choline deficient diet rat model of nonalcoholic steatohepatitis. In words: Methionine-choline deficient diet rat model of nonalcoholic steatohepatitis. Format: in vivo. The settings on record: repeat oral administration at 1000 mg/kg.
For data set [2], the system named is galactosamine-induced steatohepatitis mouse model. In words: Galactosamine-induced steatohepatitis mouse model. Format: in vivo. The note with it: oral administration at 1000 mg/kg; by suppressing triglyceride accumulation.
Data set [3] relates to diet-induced hepatic steatosis model. In words: Mouse diet-induced hepatic steatosis model. Format: in vivo. The settings on record: repeat oral administration at >0.1 mg/g.
A further data set can be described thus: Elasticity of arteries. Format: in vivo. The note with it: rabbits.
Data set [4] can be described thus: ADME of 14C-EPA-E in rats (absorption, distribution, metabolites, excretion). Format: in vivo. The method, then:
EPADEL® is a product containing ethyl all-cis-5,8,11,14,17-eicosapentaenoate (EPA-E), one of the n-3 essential fatty acids. The preclinical absorption, distribution, metabolism and excretion (ADME) characteristics of EPA-E have been determined primarily in rats.
After administration of ^14C-EPA-E into the ligated intestine of rats, the residual radioactivity in the intestine at 24 hours was only 4.6% of the administered dose. Radioactivity transferred to the plasma and lymph was mainly detected in the triglyceride (TG) fraction in the early phase after dosing, while distribution to the free fatty acid (FFA) fraction was slight at all timepoints. […] Orally administered EPA-E was primarily incorporated in adrenal gland lipids as cholesterol esters of the fatty acids eicosapentaenoic acid (EPA), docosapentaenoic acid (DPA) and docosahexaenoic acid (DHA).
Consequently, when EPA-E is administered orally to humans, it would appear that it is well absorbed, even though the unchanged ethyl ester form is not detected, and the free form (EPA) is only detected at a very low level, in the blood. Due to this absorption mechanism of essential fatty acids, the administered EPA-E exists as a blood-constituent fatty acid in the total lipids. In fact, according to the approval package document of Lovaza®, the free form of EPA is undetectable in the circulation (<1 μM) following an oral dose of 4 g of Omacor® (a mixture of the ethyl esters of EPA and DHA) Following oral administration of EPA-E, EPA, DPA and DHA were isolated and identified as metabolites in tissues and plasma. EPA, DPA and DHA were incorporated into TG and PL. Radioactivity was primarily excreted in expired air (44%) after single oral administration at 30 mg/kg EPA-E with minimal excretion in bile and urine (˜3%) and approximately 20% excreted in feces.
Renal excretion was the elimination route for several minor highly polar metabolites (<0.4%), but EPA-E, EPA, DPA or DHA were not detected in the urine. In feces, EPA-E and EPA, evidently derived from the unabsorbed drug, were detected; however, no DPA or DHA was detected in the feces.
In the total lipid fraction of the liver, the radioactivity originated mainly from EPA, DPA and DHA. Thus, it is considered that EPA, DPA and DHA are the predominant metabolites of ^14C-EPA-E in tissues, as constituent fatty acids of the total lipid fraction.

For a further data set, the system named is NASH. Put plainly: Phase II NASH trial: laboratory parameters and circulating markers. Format: in vivo, human. An excerpt:
This example provides the protocol used for an ongoing phase II clinical trial, double blind, placebo-controlled study to investigate the safety, efficacy, and pharmacokinetic profile of two doses of EPA-E in subjects with NASH. Up to 70 subjects were enrolled into each treatment arm, for a total of 210 subjects to be enrolled. Block randomization using an interactive voice response system (IVRS) was used to assign patients in a 1:1:1 ratio to two active doses and placebo. Patients were stratified at randomization by presence or absence of diabetes. Patients with diabetes comprised no more than 25% of the total number of patients enrolled. Subjects were treated with 600 mg EPA-E, 900 mg EPA-E or placebo three times a day for one year.
Following confirmation of eligibility based on both inclusion and exclusion criteria, subjects were randomized to receive placebo or one of two doses of EPA-E (1800 mg/day or 2700 mg/day) in three divided doses daily. Block randomization using an interactive voice response system was used to assign subjects in a 1:1:1 ratio between the three arms. Subjects were stratified by the presence of diabetes, impaired glucose tolerance or metabolic syndrome on stable doses of medication. The total fraction of such individuals was capped at 40% of the study cohort.
All subjects were followed according to a predefined clinic schedule. Data from unscheduled visits were collected in separate forms. Following twelve months of treatment, all subjects underwent a protocol-driven liver biopsy. Study drug was then discontinued.
The primary one-year efficacy endpoint was a composite of either a NAS <3 without worsening of fibrosis or a drop in NAS by 2 or more with contribution from more than one parameter and no worsening of fibrosis. The proportions of subjects meeting this endpoint after 12 months of treatment in those receiving EPA-E were compared to those receiving placebo using the Cochrane-Armitage trend test. A short-term efficacy endpoint was changes from baseline in alanine aminotransferase at 3 and 6 months. This was assessed by analysis of covariance. Secondary endpoints included changes in the individual histological parameters related to NAFLD, overall NAS, liver enzymes and function, hemoglobin A1C, acute phase reactants, insulin sensitivity as measured by the homeostatic model (HOMA-IR), levels of cytokeratin 18 (CK18), hyaluronic acid, type IV collagen (7S domain), procollagen III peptide and key cytokines. Proportions of subjects meeting categorical endpoints were compared using the Cochrane-Armitage test for trend. Numerical scores were compared using Wilcoxon 2-sample tests. Safety-related endpoints included adverse events including hematological-, biochemical-, renal- and EKG-related abnormalities. These were enumerated.

Data set [5] in a line: Safety pharmacology studies. The note with it: oral doses up to 3000 mg/kg. Format: in vivo.
The mark [6] stands for this setting: single oral administration at 30 mg/kg.

Molecules are shown by their SMILES.

In the case of `CC/C=C\C/C=C\C/C=C\C/C=C\C/C=C\CCCC(=O)OCC` [EPA-E, ethyl all-cis-5,8,11,14,17-eicosapentaenoate], in data set [1], the fibrosis result was “inhibited fibrosis”. Further, the progression of steatohepatitis result in data set [2] is “retarded progression of steatohepatitis”. Besides, in data set [3], the fat accumulation result is given as “suppressed fat accumulation” and the “hepatic SREBP-1c levels” value is on record as “suppressing hepatic SREBP-1c levels”. The elasticity of arteries entry in “Elasticity of arteries” is given as “preserve the elasticity of arteries”. The “radioactivity excreted in expired air” value in data set [4] (rat, in vivo, po, 30 mg/kg) came to 44%. In data set [4] (setting [6]), the “radioactivity excreted in bile and urine” value is listed as ~3%; the “radioactivity excreted in feces” value was “approximately 20%”. For the same compound, the body mass index result in the data set with NASH (across groups) is reported as “remained similar across groups”. Besides, the “AST, ALT or GGT” value with NASH (baseline to end of study, FIG. 8) is on record as “no significant changes”. Further, the “HgbA1C or circulating fasting insulin concentrations” value with NASH (either active treatment arm compared to placebo) is “no significant changes”. The “change in serum triglycerides” value in the data set with NASH (high dose EPA-E, placebo 11.5±50.9, p<0.05, Wilcoxon rank sum test) is −4.9±116.0. The “change in serum ALT” value in the data set with NASH (high dose EPA-E, placebo −24.1±48.3, p<0.05, Wilcoxon rank sum test) is recorded as −3.2±51.5. In addition, in the data set on NASH (over the course of the study), the hepatic synthetic functions result is “did not change over the course of the study and remained stable”. Moreover, in data set [5], the “effect on central nervous, autonomic nervous, respiratory and cardiovascular systems” value is “no effect on the central nervous, autonomic nervous, respiratory and cardiovascular systems”.

These data come from patent US20160213639A1, “COMPOSITIONS AND METHODS FOR TREATING NON-ALCOHOLIC STEATOHEPATITIS” (MOCHIDA PHARMACEUTICAL CO., LTD., priority 2013, published 2016).
